Laboratory results reported in the RepoRT retention time repository.

Experiment: Waters ACQUITY UPLC HSS T3, 0.4 mL/min; A: water + 0.1% formic acid; B: acetonitrile + 0.1% formic acid; gradient (min/%B) 0/5 1.5/5 12/95 14/95 14.01/100 17/100
Settings: stereoisomer not certain

Compound | LC retention time [min]
CCCCN(CCCN(CCCN(CCCN)CCCN)CCCN(CCCN)CCCN)CCCN(CCCN(CCCN)CCCN)CCCN(CCCN)CCCN | 0.706
O=C(Oc1cc(O)cc(O)c1C(=O)O)c1ccc(O)c(O)c1 | 1.15
CC1(O)CCC(C(C)(C)OC2OC(CO)C(O)C(O)C2O)CC1O (stereo not drawn) | 5.08
COC(=O)C12CCC(C)(C)CC1C1=CCC3C4(C)CCC(OC(=O)C=Cc5ccc(OC)cc5)C(C)(C)C4CCC3(C)C1(C)CC2 (stereo not drawn) | 13.1
C=CC1(CO)CCC(C(C)(C)OC2OC(CO)C(O)C(O)C2O)O1 (stereo not drawn) | 3.99
Nc1ncnc2c1ncn2C1OC(CO)C(OP(=O)(O)O)C1O (stereo not drawn) | 0.934
CN1CC(=O)NC1=N | 0.794
CC(=O)NC(CO)C(=O)O (stereo not drawn) | 0.786
CC(C=CCC1C(=O)CCC1CC(=O)O)OC1OC(CO)C(O)C(O)C1O (stereo not drawn) | 0.755
O=C(OCC1OC(Oc2ccc(C=Cc3cc(O)cc(O)c3)cc2O)C(O)C(O)C1O)c1cc(O)c(O)c(O)c1 (stereo not drawn) | 1.11
C=C(CO)C1CCC(C)(O)C(OC2OC(CO)C(O)C(O)C2O)C1 (stereo not drawn) | 3.99
C=C1C(=O)OC2C1CCC(=O)CC1(C)CCC(O)OC21 (stereo not drawn) | 6.31
CC1=CC(=O)C2(C(C)C)C(=O)C3=C(C(O)C4OC(=O)C35CCCC(C)(C)C45)C12 (stereo not drawn) | 10.6
CNCC(=O)O | 0.806
CC1(OC2OC(CO)C(O)C(O)C2O)CC(O)C2(C(C)(C)O)CC12 (stereo not drawn) | 3.99
Nc1ncnc2c1ncn2C1OC(CO)C(O)C1OP(=O)(O)O (stereo not drawn) | 0.934
Nc1nc2c(c(=O)[nH]1)NC(C(O)C(O)COP(=O)(O)OP(=O)(O)OP(=O)(O)O)C(O)N2O (stereo not drawn) | 5.68
CC(C)SC(C)C | 1.02
O=C(O)CCNCC(=O)O | 0.786
CNC(C)(C)C(=O)O | 1.02
CCC=CCC(O)C(O)C=CC=CC=CC=CC(O)CC=CCCC(=O)O (stereo not drawn) | 5.01
Nc1nc2c(ncn2CCC(CO)CO)c(=O)[nH]1 | 1.03
CCC=CCC=CCC=CCC=CCC=CCC=CCCC(=O)OCC(O)COP(=O)(O)OCCN (stereo not drawn) | 4.65
Cc1cc(O)c2c(c1O)C(=O)C1=C(C2=O)C(=O)C2C(O)C1C1C(O)CC(=O)C3=C(O)c4c(O)cc(C)c(O)c4C(=O)C321 (stereo not drawn) | 1.11

Compound | LC retention time [min]
Nc1nc2c(ncn2C2CC(O)C(COP(=O)(O)O)O2)c(=O)[nH]1 (stereo not drawn) | 0.934
CC1CCC2(C(=O)O)CCC3(C)C(=CCC4C5(C)CC(O)C(OC(=O)C=Cc6ccc(O)cc6)C(C)(C)C5CCC43C)C2C1C (stereo not drawn) | 11
CC1(C)OC2(CO)CCC1CC2OC1OC(CO)C(O)C(O)C1O (stereo not drawn) | 3.99
CC(C)OC(=O)C(C(=O)OC(C)C)=C1SCCS1 | 1.14
NC(=O)c1cccnc1 | 1.06
CCC(=O)C1CC(C)C2(CC(=O)C3(C)C4=C(CCC32C)C2(C)C=CC(=O)C(C)(CO)C2CC4)O1 (stereo not drawn) | 5.53
CCCCCON=O | 1.02
CC(=O)C1CCC2C3CCC4CC(=O)CCC4(C)C3CCC12C (stereo not drawn) | 11.8
COc1ccc(COC2OC(CO)C(O)C(O)C2OS(=O)(=O)O)cc1 (stereo not drawn) | 0.842
NCCS(=O)(=O)O | 0.777
O=C(O)CCCSCCCCSCCCC(=O)O | 0.766
CC1CCC2C(C)C3C(CC4C5CC=C6CC(OC7OC(CO)C(O)C(OC8OC(CO)C(O)C(O)C8O)C7O)CCC6(C)C5CCC43C)N2C1 (stereo not drawn) | 9.86
O=c1[nH]cnc2nc[nH]c12 | 1.1
CC1(C)C(O)CC(O)C23C(=O)OC4OCC(=CCC12)C43 (stereo not drawn) | 6.31
CC1(C)OC2(C)C(O)CC1CC2OC1OC(CO)C(O)C(O)C1O (stereo not drawn) | 3.99
CC(C)CC(N)C(=O)O (stereo not drawn) | 1.31
CC(C)=CCCC(C)(OC1OC(CO)C(O)C(O)C1O)C1CCC2(C)C1C(O)CC1C3(C)CCC(OC4OC(CO)C(O)C(O)C4O)C(C)(C)C3CCC12C (stereo not drawn) | 9.82
CC(=CC(O)C1OC1(C)C)C1CCC2(C)C1C(O)CC1C3(C)CCC(O)C(C)(C)C3C(OC3OC(CO)C(O)C(O)C3O)CC12C (stereo not drawn) | 9.9
COC1(CCC(C)COC2OC(CO)C(O)C(O)C2O)OC2CC3C4CCC5CC(=O)CCC5(C)C4CCC3(C)C2C1C (stereo not drawn) | 9.93
CC=CC=CC=CC1=NCCCC1 | 9.09
COC1CCC(=O)N1 (stereo not drawn) | 0.851
CC1OC(CC(=O)O)Cc2c1c(O)c1c(O)c(-c3cc(=O)c4c(=O)c5c(c(=O)c=4c3=O)C(C)OC(CC(=O)O)C5)cc(O)c1c2O (stereo not drawn) | 1.05
Nc1cncn1C1OC(COP(=O)(O)O)C(O)C1O (stereo not drawn) | 0.711
CC1(COC(=O)c2ccccc2)CCC2(C)CCC3(C)C4=CCC5C(C)(CCC(OC(=O)c6ccc(N)cc6)C5(C)C)C4=CCC3(C)C2C1 (stereo not drawn) | 10.9

Compound | LC retention time [min]
CC1=C2C(CC3(C)OC3CCC3(C)OC3C2O)OC1=O (stereo not drawn) | 6.31
CC1=CC(c2c(O)c(C(=O)CCc3ccccc3)c(O)c(C3C=C(C)CCC3C(C)C)c2O)C(C(C)C)CC1 (stereo not drawn) | 11
CC1(C)CCC2(C(=O)O)CCC3(C)C(=CCC4C5(C)CC(O)C(OC(=O)C=Cc6ccc(O)cc6)C(C)(C)C5CCC43C)C2C1 (stereo not drawn) | 11
CCC(C(=O)CC(C)C1=C(O)C(=O)C2C3CCC4CC(OC5OC(C(=O)O)C(O)C(O)C5O)CCC4(C)C3CCC12C)C(C)C (stereo not drawn) | 11
NCC1CCC(C(=O)O)CC1 (stereo not drawn) | 0.828
C=C(C)C1CCC2(C(=O)O)CCC3(C)C(CCC4C5(C)CC(O)C(OC(=O)C=Cc6ccc(O)cc6)C(C)(C)C5CCC43C)C12 (stereo not drawn) | 11
CC(=O)C1OC1(O)C(C)=CC=CC(C)=CC=CC=C(C)C=CC=C(C)C=CC1=C(C)CCCC1(C)C (stereo not drawn) | 10.4
CN1C2CCC1(O)C(O)C(O)C2O (stereo not drawn) | 1.05
CC(O)C1CCC2C3CCC4=CC(=O)CCC4(C)C3CCC12C (stereo not drawn) | 11.8
C=Cc1c2[nH]c(c1C)Cc1[nH]c(c(CCC(=O)O)c1C)Cc1[nH]c(c(C)c1CCC(=O)O)Cc1[nH]c(c(C)c1C=C)C2 | 4.78
CC12CCC(O)(CC1OC1OC(CO)C(O)C(O)C1O)C(C)(C)O2 (stereo not drawn) | 3.99
Cc1c(C)c(C(=O)C(C)O)n2c1CCC2 (stereo not drawn) | 4.98
Nc1ncnc2c1ncn2C1OC(COP(=O)(O)O)C(O)C1O (stereo not drawn) | 0.934
CC(C)(OC1OC(CO)C(O)C(O)C1O)C1CCC(O)(CO)CC1 (stereo not drawn) | 5.08
CNc1ccccc1C(=O)OCC(C)C | 4.98
OC1CC2CC(O)C(C1)N2 (stereo not drawn) | 0.818
CC(N)C(=O)O (stereo not drawn) | 0.806
C=C(C)C1CCC(C)(O)C1CC1=C(O)C(=C(O)c2ccccc2)C(=O)C(CC=C(C)C)(CC=C(C)C)C1=O (stereo not drawn) | 8.61
CC(C)=CC1c2[nH]c3ccccc3c2CC2C(=O)N3CCCC3C(=O)N21 (stereo not drawn) | 3.99
CC1CCC(C(C)(O)COC2OC(CO)C(O)C(O)C2O)CC1O (stereo not drawn) | 5.08
Nc1[nH]c(=O)nc2c1ncn2C1CC(O)C(COP(=O)(O)O)O1 (stereo not drawn) | 0.934
CC1CCC(C(C)(O)CO)CC1OC1OC(CO)C(O)C(O)C1O (stereo not drawn) | 5.08

The next lines start with the values.

LC retention time [min] | Compound
0.75 | C[N+](C)(C)CC(O)CC(=O)[O-] (stereo not drawn)
0.839 | CC(=O)OC(CC(=O)[O-])C[N+](C)(C)C (stereo not drawn)
0.772 | CC(=O)OCC[N+](C)(C)C
9.56 | CCCCCCC=CCCCCCCCCCC(=O)OC(CCC(=O)[O-])[N+](C)(C)C (stereo not drawn)
0.75 | CCCCC(S)CCOC (stereo not drawn)
5.18 | C=CCC=CCC=CCCCCCCCC(C(=O)OC)C(=O)C(=CC(=O)OC)OC (stereo not drawn)
8.51 | CCCCCC(O)C=CC1C(O)CC(O)C1CC(=O)CCC(=O)O (stereo not drawn)
0.761 | C[N+](C)(C)CCOP(=O)([O-])O
5.43 | CCCCC=CCCCCCCCC(=O)OCC(COP(=O)(O)OCC(N)C(=O)O)OC(=O)CCCCCCCCCCC (stereo not drawn)
5.17 | CCCCCCCCCCCCCCCCCCC(=O)OCC(O)COP(=O)(O)OCC(N)C(=O)O (stereo not drawn)
1.05 | CCC(C)C(N)C(=O)NC(CCC(=O)O)C(=O)O (stereo not drawn)
4.89 | CCCCCC(=O)CCOC1OC(CO)C(O)C(O)C1O (stereo not drawn)
0.706 | CC(C)N
1.05 | CC(C)CC(N)C(=O)NC(CCC(=O)O)C(=O)O (stereo not drawn)
12.1 | CCCCCCC=CC=CCCCCCCCC(=O)OC(COC(=O)CCCCCCCCC(C)C)COP(=O)(O)OCC(O)CO (stereo not drawn)
4.09 | CCCCCC=CCC(O)C=CC=CCC=CCCCC(=O)NCCS(=O)(=O)O (stereo not drawn)
8.55 | O=C(O)CCCC(O)C=CC=CCCC(O)CC=CCCCCC(O)(O)O (stereo not drawn)
1.02 | CCO[SiH](CCCSCCC[SiH](OCC)OCC)OCC
3.75 | CSCCC(N)C(=O)NC(CCCN=C(N)N)C(=O)O (stereo not drawn)

LC retention time [min] | Compound
0.755 | COc1cc(CCCO)ccc1OC(CO)COC1OCC(O)C(O)C1O (stereo not drawn)
4.04 | CCC(C)C(=O)OC(CC(=O)[O-])C[N+](C)(C)C (stereo not drawn)
1.31 | CCC(C)C(N)C(=O)O (stereo not drawn)
5.64 | CCCCCCCCCCCCCCCCCC(=O)OCC(O)COP(=O)(O)OCC(O)CO (stereo not drawn)
4.09 | CCCCCC(O)C=CC=CCC=CCC=CCCCC(=O)NCCS(=O)(=O)O (stereo not drawn)
1.04 | CSCCC(N)C(=O)O (stereo not drawn)
0.766 | CCCCC(CC)CS (stereo not drawn)
1.02 | CCCC(N)C(=O)O (stereo not drawn)
1.02 | NCCCCC(=O)O
0.838 | CCCC(=O)OCCC(S)CCC (stereo not drawn)
0.818 | C=C(CCC)C(N)C(=O)O (stereo not drawn)
4.91 | CCCCCCC=CCCCCCCCC(=O)OCC(O)COP(=O)(O)OCCN (stereo not drawn)
4.65 | CCC=CCC=CCC=CCC=CCC=CCC=CCCC(=O)OC(CO)COP(=O)(O)OCCN (stereo not drawn)
0.838 | CCCCCCOC(=O)CC(C)S (stereo not drawn)
0.912 | CC(=O)OCCC(N)C(=O)O (stereo not drawn)
3 | CC(C)C(=O)OC(CC(=O)[O-])C[N+](C)(C)C (stereo not drawn)
0.912 | CNC(CCC(=O)O)C(=O)O (stereo not drawn)
9.13 | CCCCCCCCCCCCCCCCCC(=O)NC(Cc1ccc(O)cc1)C(=O)O (stereo not drawn)
4.52 | CC(C)=CCCC(C)CCOC1OC(CO)C(O)C(O)C1OC1OC(CO)C(O)C(O)C1O (stereo not drawn)
